According to patent US6864253B2, “Benzo[4,5]thieno[2,3-c]pyridine and Benzo[4,5]furo[2,3-c]pyridine Derivatives Useful as Inhibitors of Phosphodiesterase” (Orth-McNeil Pharmaceutical, Inc., priority 2000, dated 2005):

molecular target: PDEV (Oryctolagus cuniculus, UniProt G1SX67); assay: Cyclic nucleotide phosphodiesterase (PDE) assay, inhibition of PDEV isolated from rabbit tissue; type: biochemical; conditions: 10 μM test compound; rabbit PDEV
Description: Briefly, rabbit or human tissues were homogenized in an ice-cold buffer solution containing 20 mM HEPES (pH 7.2), 0.25M sucrose, 1 mM EDTA, and 1 mM phenylmethylsulphonyl fluoride (PMSF). The homogenates were centrifuged at 100,000 g for 60 minutes at 4° C. The supernatant was filtered through […] filter and loaded on a Pharmacia Mono Q anion exchange column (1 ml bed volume) that was equilibrated with 20 mM HEPES, 1 mM EDTA and 0.5 mM PMSF. […] The fractions comprising various PDE activities were pooled separately and used in later studies.
The assays were adapted to a 96-well format. The enzyme was assayed in 5 mM MgCl2, 15 mM Tris HCl (pH 7.4), 0.5 mg/ml bovine serum albumin, 1 μM cGMP or cAMP, 0.1 μCi [^3H]-cGMP or [^3H]-cAMP, and 2-10 μl of column elution. The total volume of the assay was 100 μl. The reaction mixture was incubated at 30° C. for 30 minutes. The reaction was stopped by boiling for 1 minute and then cooled down on ice. The resulting [^3H] 5′-mononucleotides were further converted to uncharged [^3H]-nucleosides by adding 25 μl 1 mg/ml snake venom (Ophiophagus hannah) and incubating at 30° C. for 10 minute. The reaction was stopped by the addition of 1 ml Bio-Rad AG1-X2 resin slurry (1:3). All the charged nucleotides were bound by the resin and only the uncharged [^3H]-nucleosides remained in the supernatant after centrifuging. An aliquot of 200 μl was taken and counted by liquid scintillation. PDE activity was expressed as pmol cyclic nucleotide hydrolyzed/min/ml of enzyme preparation.
Inhibitor studies were carried out in assay buffer with a final concentration of 10% DMSO.

| SMILES | % Inh @ 10 μM (rabbit) [%] |
| --- | --- |
| O=C(c1ccc(-c2cccc([N+](=O)[O-])c2)o1)N1CCc2c([nH]c3ccccc23)C1c1ccc2c(c1)OC(F)(F)O2 (centres unmarked) [Cmpd 21] | 32 |
| O=C(O)CCn1c2c(c3ccccc31)CCN(C(=O)c1ccc(-c3cccc(C(F)(F)F)c3)o1)C2c1ccc2c(c1)OCO2 (centres unmarked) [Cmpd 29] | 79 |
| O=C(c1cnn(-c2ccccc2)c1C(F)(F)F)N1CCc2c([nH]c3ccccc23)C1c1ccc([N+](=O)[O-])cc1 (centres unmarked) [Cmpd 131] | 12 |
| Cc1ccc(-c2ccc(C(=O)N3CCc4c([nH]c5ccccc45)C3c3ccc4c(c3)OCO4)o2)c([N+](=O)[O-])c1 (centres unmarked) [Cmpd 53] | 85 |
| O=C(c1ccc(-c2ccc(NCCCCO)cc2)o1)N1CCc2c([nH]c3ccccc23)C1c1ccc2c(c1)OCO2 (centres unmarked) [Cmpd 60] | 89 |
| CCCc1c(C(=O)N2CCc3c([nH]c4ccccc34)C2c2ccc3c(c2)OCO3)cnn1-c1ccccc1 (racemic) [Cmpd 122] | 65 |
| N#Cc1ccc(C2c3[nH]c4ccccc4c3CCN2C(=O)c2ccc(-c3cccc(C(F)(F)F)c3)o2)cc1 (centres unmarked) [Cmpd 81] | 18 |
| Cc1onc(-c2ccccc2)c1C(=O)N1CCc2c([nH]c3ccccc23)C1c1ccc(Cl)c(C(F)(F)F)c1 (racemic) [Cmpd 114] | 27 |
| CN(C)CCn1c2c(c3ccccc31)CCN(C(=O)c1ccc(-c3cc(C(F)(F)F)ccc3Cl)o1)C2c1ccc2c(c1)OCO2 (centres unmarked) [Cmpd 43] | 22 |
| O=C(O)C1Cc2c([nH]c3ccccc23)C(c2ccc3c(c2)OCO3)N1C(=O)c1ccc(-c2cccc(C(F)(F)F)c2)o1 (centres unmarked) [Cmpd 70] | 46 |
| CN(C)CCn1c2c(c3ccccc31)CCN(C(=O)c1cc3cc([N+](=O)[O-])ccc3o1)C2c1ccc2c(c1)OCO2 (centres unmarked) [Cmpd 13] | 94 |
| CC(=O)Nc1cccc(-c2ccc(C(=O)N3CCc4c([nH]c5ccccc45)C3c3ccc4c(c3)OCO4)o2)c1 (centres unmarked) [Cmpd 55] | 70 |
| O=C(c1cc(-c2ccccc2)c(C(F)(F)F)s1)N1CCc2c([nH]c3ccccc23)C1c1ccc2c(c1)OCO2 (centres unmarked) [Cmpd 90] | 69 |
| Cc1onc(-c2ccccc2)c1C(=O)N1CCc2c([nH]c3ccccc23)C1c1ccc(C#N)cc1 (racemic) [Cmpd 115] | 30 |
| O=S(=O)(c1ccccc1)c1ccsc1S(=O)(=O)N1CCc2c([nH]c3ccccc23)C1c1ccc2c(c1)OCO2 (centres unmarked) [Cmpd 146] | 35 |
| CN(C)CCn1c2c(c3ccccc31)CCN(C(=O)c1cc3ccccc3s1)C2c1ccc2c(c1)OCO2 (centres unmarked) [Cmpd 17] | 88 |
| O=C(c1ccc(-c2cccc([N+](=O)[O-])c2)o1)N1CCc2c(n(C(=O)c3ccc(-c4cccc([N+](=O)[O-])c4)o3)c3ccccc23)C1c1ccc2c(c1)OC(F)(F)O2 (centres unmarked) [Cmpd 19] | 15 |
| O=C(c1ccc(C(F)(F)F)o1)N1CCc2c([nH]c3ccccc23)C1c1ccc2c(c1)OCO2 (centres unmarked) [Cmpd 62] | 86 |
| CN(C)CCCn1c2c(c3ccccc31)CCN(C(=O)c1ccc(-c3cccc(C(F)(F)F)c3)o1)C2c1ccc2c(c1)OCO2 (centres unmarked) [Cmpd 44] | 65 |
| O=C(c1ccc(-c2cccc([N+](=O)[O-])c2)o1)N1CCc2c([nH]c3ccccc23)C1c1ccc2c(c1)OCO2 (centres unmarked) [Cmpd 54] | 81 |
| O=C(O)C1Cc2c([nH]c3ccccc23)C(c2ccc3c(c2)OCO3)N1C(=O)c1ccc(-c2cccc([N+](=O)[O-])c2)o1 (centres unmarked) [Cmpd 67] | 50 |

same assay, conditions: 10 μM test compound; rabbit PDEV; 10 µM

| SMILES | % INH @ 10 μM (rabbit) [%] |
| --- | --- |
| COc1ccc(-c2cnc(N3CC(O)c4c([nH]c5ccccc45)C3c3ccc4c(c3)OCO4)nc2)cc1 (stereo not drawn) [Cmpd 158, 1-(3,4-Methylenedioxy-phenyl)-2-[5-(4-methoxyphenyl)-pyrimidin-2-yl]-4-hydoxy-2,3,4,9-tetrahydro-1H-β-carboline] | 49 |

same assay, conditions: 10 μM test compound; rabbit PDEV; read-out: % INH @ 10 μM (rabbit)

| SMILES | inhibition at 10 µM [%] |
| --- | --- |
| CS(=O)(=O)c1ccc(-c2cnc(N3CCc4c(n(CCN5CCCC5)c5ccccc45)C3c3ccc4c(c3)OCO4)nc2)c([N+](=O)[O-])c1 (centres unmarked) [Cmpd 154] | 97 |
